Values joined by “and” are separate entries in the source; they are usually repeats but may differ in a detail not shown here. Equal values may be shown once. Active and inactive are the calls of the source.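 How the source made its calls: active means compounds giving half or more protection of infected cells from virus-caused growth loss, again on retest; inactive means the rest.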 Where a SMILES comes first, the peptide text is derived from it. Bridges are numbered along the chain shown (N, C = ends). [ ]: non-standard residue; d: D form. The star is where a group is joined. ξ: configuration not given here. PhAc = O=C(Cc1ccccc1)*; ξP = O=C(O)C1CCCN1
Tested on: CEM cells HIV-1 protection, formazan growth assay
Assay: NCI AIDS Antiviral Assay
Conditions: for IC50: measured here: growth of uninfected CEM cells
In short: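 Five concentrations of each compound were applied to infected and uninfected human CEM cells. Protection from HIV-1 was judged from growth measured with a soluble formazan assay.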

| SMILES | EC50 [µM] | IC50 | outcome |
| --- | --- | --- | --- |
| CCCCNC(=O)C1C2C=CC(O2)C1C(=O)O (stereo not drawn) | > 200 | > 200 µM | – |
| CCOC(=O)C1=C(OC(OCC)C(CC)[Se]c2ccccc2)CCC1 (stereo not drawn) | > 45.7 | > 45.7 µM | – |
| OC1c2ccccc2C2(O)C1C(c1ccccc1)C(c1ccccc1)C2(O)c1ccccc1 (stereo not drawn) | – | – | inactive |
| Cc1ccc([N+](=O)[O-])cc1NC(=O)C(=O)C1CCC2=C(Sc3ccccc3N2)C1=O (stereo not drawn) | > 117 | > 117 µM | – |
| Cc1ccc(NC(=O)c2c(N)c(C#N)c3n2CCC3)cc1 | > 200 | > 200 µM | – |
| Oc1ccccc1-c1nn2c(CCCCCCCCc3nnc4sc(-c5ccccc5O)nn34)nnc2s1 | > 200 | 12 µM | – |
| COC(=O)C1=C(C(=O)OC)C2(C3=C(C)C(=O)c4ccccc43)CCC1(C)O2 (stereo not drawn) | > 97.7 | 52.5 µM | – |
| Cc1ccc2cc(NC(=O)CN)c3ccc(C)nc3c2n1 | > 20 | 3.72 µM | – |
| Cc1cnc2c(c1C)C(=O)c1ccccc1C2=O | – | – | inactive |
| O=c1[nH]c2ccccc2c(O)c1/C=N/C(=S)NCCc1ccccc1 | > 200 | > 200 µM | – |
| CCOP(=O)(OCC)OC1c2[nH]cc(C(=O)OCc3ccccc3)c2-c2cc(C(=O)OC)[nH]c2C1OC (stereo not drawn) | > 200 | 16.6 µM | – |
| O=C(c1ccc(Cl)cc1)N(C(=O)N1CCCCC1)c1ccccc1 | > 200 | 81.3 µM | – |
| CC[C@]1(Cc2ccc(OC)c(OC)c2)[C@@H]2C[C@@H](C3OCCO3)ON2O[C@H](OC2CCCC2(c2ccccc2)c2ccccc2)[C@@H]1OC(C)=O (stereo partly drawn) | > 200 | 21.9 µM | – |
| CCC[CH2][Sn]([CH2]CCC)([CH2]CCC)/[C](=C/[Si](C)(C)c1ccccc1)c1ccc2c(c1)OCO2 | > 3.47 | > 3.47 µM | – |
| CC(C)COP(C)(=O)C(N)(C(F)(F)F)C(F)(F)F (stereo not drawn) | > 200 | > 200 µM | – |
| CN(C(=O)C12C3C4C1C1C4(C#N)C3C12C(=O)O)C(C)(C)C (stereo not drawn) | > 158 | > 158 µM | – |
| Cc1cc2c(c3[nH]c4ccccc4c13)C(=O)c1ccccc1C2=O | > 3.39 | > 3.39 µM | – |
| COC(=O)c1ccc(C)cc1C1CN=NC12Cc1cc(C)ccc1C2=O (stereo not drawn) | > 200 | 9.77 µM | – |
| NCCCNCCSSCCCCS(=O)O | – | – | inactive |
| COc1cc2c(cc1O)CC13CCC(=O)N1CCc1cc(OC)c(O)c-2c13 (stereo not drawn) | – | – | inactive |
| O=c1c2ccccc2nnn1N1CCOCC1 | > 81.3 | > 81.3 µM | – |
| CC1Cc2c(cc(N)nc2Br)NC1=O (stereo not drawn) | > 200 | 95.5 µM | – |

| SMILES | EC50 [µM] | IC50 | outcome |
| --- | --- | --- | --- |
| CCCCCCc1cc(C(=O)Nc2cccc(C(F)(F)F)c2)nc(N)n1 | – | – | inactive |
| CC[C@@]1(OC(=O)C(N)CCCCN)C(=O)OCc2c1cc1n(c2=O)Cc2cc3ccccc3nc2-1 (stereo partly drawn) | > 10 | 0.0112 µM | – |
| Cc1ccc(C(=O)Cc2nc3c([nH]c2=O)c(C)nn3-c2ccccc2)c(C)c1 | > 200 | > 200 µM | – |
| O=C(C[n+]1ccccc1)N/N=C(\Cc1nc2ccc([N+](=O)[O-])cc2[nH]c1=O)C(=O)Nc1cc(Cl)c(Cl)cc1Cl | > 79.4 | 66.1 µM | – |
| Cc1nccc2c1cnc1ccnn12 | > 28.2 | > 28.2 µM | – |
| CCOC(=O)N/N=C(\Cc1ccc([N+](=O)[O-])cc1)OCC | > 200 | > 200 µM | – |
| CCC(C)C(N)C(=O)NC(CC(N)=O)C(=O)NC(CC(C)C)C(=O)NC(CCCCN)C(=O)NC(C)C(=O)NC(CC(C)C)C(=O)NC(C)C(=O)NC(C)C(=O)NC(CC(C)C)C(=O)NC(C)C(=O)NC(CCCCN)C(=O)NC(CCCCN)C(=O)NC(C(=O)NC(CC(C)C)C(N)=O)C(C)CC (stereo not drawn) | 40.7 | 43.7 µM | – |
| Nc1c(Br)cc2snc3c2c1C(=O)c1ccccc1-3 | > 15.8 | 8.51 µM | – |
| NC(F)(Cc1ccccc1)C(=O)O (stereo not drawn) | > 200 | > 200 µM | – |
| Cc1cn(C(C)OCCO[Si](C)(C)C(C)(C)C)c(=O)[nH]c1=O (stereo not drawn) | > 200 | 112 µM | – |
| C=CC(=O)N1C/C(=C\c2ccc(Cl)cc2)C(=O)/C(=C/c2ccc(Cl)cc2)C1 | > 0.2 | 0.0708 µM | – |
| Cc1c(/C=N/NC(=O)c2ccccc2)c(=O)n(-c2ccccc2)n1C | > 200 | > 200 µM | – |
| CCOC(=O)c1ncn(CCc2ccc(Cl)cc2)c1C | > 200 | > 100 µM | – |
| O=[N+]([O-])/C(C(Cl)=C(Cl)Cl)=C(/Cl)SCc1ccccc1 | > 200 | 11 µM | – |
| CC(C)(C)C1=C(Br)C(Br)(C(C)(C)C)OP1(=O)c1ccccc1 (stereo not drawn) | > 200 | > 200 µM | – |
| CCc1cccc(CC)c1NC(=O)C(C#N)C1=C(Cl)C(=O)c2ccccc2C1=O (stereo not drawn) | > 17.8 | 11.5 µM | – |
| CCOCNC(=O)N(COCC)COCC | > 398 | > 398 µM | – |
| Cc1cc(C(C)(C)C)cc(Cc2cc(C(C)(C)C)cc(Cc3cc(C(C)(C)C)cc(C)c3O)c2O)c1O | > 20 | > 20 µM | – |
| COc1ccc(/C=C/C(=O)c2ccc(Br)cc2)cc1 | > 200 | 33.1 µM | – |
| O=C1CCCCCN1c1ccccn1 | > 1320 | > 1320 µM | – |
| COc1ccc(NC(=O)CC(=O)n2nc(-c3ccccc3)c(N=Nc3ccc(C)cc3)c2-c2ccccc2)cc1 | > 9.77 | > 9.77 µM | – |
| COC1C(O)C(n2ccc(=O)[nH]c2=O)OC1[C@@H](O[C@H]1OC(C(=O)NC2CCCCNC2=O)=CC(O)C1O)C(N)=O (stereo partly drawn) | – | – | inactive |

| SMILES | EC50 [µM] | IC50 | outcome |
| --- | --- | --- | --- |
| CC(=O)OC[C@@H](OC(C)=O)[C@@H](OC(C)=O)[C@H]1OC[C@@H]2C[C@H]([C@H]1OC(C)=O)N(Cc1ccccc1)O2 | 93.3 | > 200 µM | – |
| O=C1C=C(NC(=O)C2CCCCC2)c2ncccc2C1=O | – | – | inactive |
| Cc1ccccc1[P+](Cc1ccccc1)(c1ccccc1C)c1ccccc1C | > 20 | 1.07 µM | – |
| COc1ccc(/C(=C/n2ccnc2)C(=O)c2ccc(OC)c(OC)c2)cc1 | > 200 | > 200 µM | – |
| O=C(O)c1ccccc1-c1c2ccc(=Nc3ccccc3)cc-2oc2cc(Nc3ccc(S(=O)(=O)O)cc3)ccc12 | 14.1 | > 200 µM | – |
| Nc1ccc([N+](=O)[O-])cc1N=C/C=C/c1ccccc1 | > 10.2 | > 10.2 µM | – |
| COCN1C(=N)C(C(=O)OC(C)(C)C)=C2C=C(O)C=CC21C (stereo not drawn) | > 200 | 1.45 µM | – |
| Cn1c(NC(=O)NC23CC4CC(CC(C4)C2)C3)nc2ccccc21 | > 200 | > 200 µM | – |
| C/C(=N\O)[C@H]1CC[C@H]2[C@@H]3CCC4=C/C(=N/O)CC[C@]4(C)[C@H]3C(=O)C[C@]12C | > 200 | 39.8 µM | – |
| Cc1cccc2c1CCC21OC(=O)c2c1cc(F)c1ccccc21 (stereo not drawn) | > 39.8 | 14.8 µM | – |
| COc1cc2c(cc1OC)C(C#N)C2 (stereo not drawn) | 1050 | 1320 µM | – |
| NC1=CNC(=O)C1 | > 138 | > 138 µM | – |
| CC1CCC2(OCCO2)[C@]2(C)CC(O)C(=O)C=C12 (stereo partly drawn) | – | – | inactive |
| O=C(O)c1ccc(C(=O)O)c(C(=O)c2cc(C(=O)O)ccc2C(=O)O)c1 | > 162 | 61.7 µM | – |
| N#CC(C#N)=C1NN=C(Cl)c2ccccc21 | – | – | inactive |
| CCOC(=O)C(=Cc1cccc(Cl)c1)C(=O)OCC | > 91.2 | 6.17 µM | – |
| COC(C(=O)C(O)C(C)O)C1Cc2cc3cc(OC4CC(OC(C)=O)C(OC5CC(O)C(OC)C(C)O5)C(C)O4)cc(O)c3c(O)c2C(=O)C1OC1CC(OC2CC(OC3CC(C)(O)C(OC(=O)C(C)C)C(C)O3)C(O)C(C)O2)C(O)C(C)O1 (stereo not drawn) | > 2.09 | 0.0107 µM and 0.00389 µM | – |
| C=CCCCC1(C)CCNC1=S (stereo not drawn) | > 513 | > 513 µM | – |
| Cc1ccc(C)n1C1CCOC1=O (stereo not drawn) | – | – | inactive |
| CCCCC(C(=O)C(=O)NC1C2CC3CC(C2)CC1C3)C(=O)C(C)C (stereo not drawn) | > 74.1 | > 74.1 µM | – |
| Cc1ccc(N=NC(C(=O)c2ccccc2)C(=O)c2ccccc2)cc1 | > 39.8 | 20 µM | – |
| CSc1nc2c(nc(C)c(=O)n2C2OCC(OC(C)=O)C(OC(C)=O)C2OC(C)=O)c(=O)[nH]1 (stereo not drawn) | > 513 | > 513 µM | – |

| SMILES | EC50 [µM] | IC50 | outcome |
| --- | --- | --- | --- |
| Brc1ccc2c(-c3nc(-c4c[nH]c5ccccc45)cs3)c[nH]c2c1 | > 100 | 6.46 µM | – |
| OCCSCc1cc2c(O)c(c1)Cc1cc(CSCCO)cc(c1O)Cc1cc(CSCCO)cc(c1O)Cc1cc(CSCCO)cc(c1O)C2 | > 24 | 5.01 µM | – |
| CC(=O)C(N=NC1CCC(S(=O)(=O)NB2N=CS2)CC1)C(=O)Nc1ccccc1C (stereo not drawn) | > 11.5 | > 11.5 µM | – |
| COc1nc2ncc([C@@H](O)[C@H](O)CO)nc2c(=O)[nH]1 | > 200 | > 200 µM | – |
| COc1cc2c(c(C)c1O)[C@H]1Cc3ccccc3[C@H]1O2 | > 7.41 | > 7.41 µM | – |
| CN(C)C(=S)/N=c1\ssc(=S)n1C | – | – | inactive |
| CCCCCCCC(=O)OCC1OC(n2cc(F)c(=O)[nH]c2=O)C(NC(=O)OCc2ccccc2)C(O)C1O (stereo not drawn) | > 64.6 | 56.2 µM | – |
| O=C(/N=N/C(=O)N1CCCCC1)N1CCCCC1 | > 67.6 | 28.8 µM | – |
| O=C(Nc1ccc(F)cc1)C(=O)C(C(=O)c1ccccc1F)C1OC(=O)c2ccccc21 (stereo not drawn) | > 302 | 18.2 µM | – |
| COc1ccc2c(c1)OCC1=C2Oc2ccccc2C1 | > 200 | 26.9 µM | – |
| COC1/C=C\C=C(/C)C(=O)Nc2cc3nc4ccc(Br)cc4oc-3c(c2=O)CC(C)CC(OC)C(O)C(C)/C=C(\C)C1OC(N)=O (stereo not drawn) | > 0.2 | 0.0115 µM | – |
| Cc1nc(-c2nc(C)c(C(=O)NN(C)C)s2)sc1C(=O)NN(C)C | > 70.8 | > 70.8 µM | – |
| O=c1[nH]cnc2c1ccn2C1OC(CO)C(O)C1O (stereo not drawn) | > 20 | 2.04 µM | – |
| CC1(c2ccc3ccccc3c2)OC(=O)c2ccccc21 (stereo not drawn) | – | – | inactive |
| COc1cccc(C2c3cc4c(cc3OC(N3CCCC3)C2c2ccccc2)OCO4)c1O (stereo not drawn) | > 200 | 3.16 µM | – |
| N#CC1C(=N)Cc2ccccc2-c2ccccc21 (stereo not drawn) | > 200 | 1.55 µM | – |
| Cc1ccsc1/C=N/NC1=NCCN1 | > 200 | > 100 µM | – |
| CCOP(=O)(OCC)/C(C#N)=C/c1cccn1N(C)C | > 257 | 245 µM | – |
| O=C(Cc1ccccc1)N[C@@H]1COC(=O)C2CCCN2C(=O)[C@@H]2CCCN2C1=O (stereo partly drawn) (PhAc-[dS]-Pro-[ξP]; ester 1-C) | > 200 | > 200 µM | – |

From PubChem BioAssay AID179 (DTP/NCI, 2004)
